The text below walks through data of US10538532B2, “Hepatitis B antiviral agents” (ENANTA PHARMACEUTICALS, INC., priority 2016, dated 2020).

SMILES strings stand for the structures. Some results are limits rather than exact numbers.

The subject of one test is HBV. The test can be described thus: HepAD38 antiviral assay: reduction of viral product accumulation (virion DNA by qPCR, HBsAg or HBeAg by ELISA). It is filed as cell-based, hepatitis B virus. The following applies: HepAD38 cells, five days after compound addition; concentration reducing viral product accumulation by 50% relative to no drug controls; read-out: HepAD38 EC50. In short, it runs like this: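 HepAD38 cells were washed free of tetracycline, plated at 35,000 cells/well and given compounds diluted 1:200 from DMSO. After 5 days, or 8 days with media and compound refreshed on d2 and d5, virion DNA was measured by qPCR and HBsAg or HBeAg by ELISA. EC50 is the concentration giving 50% reduction of viral product versus no-drug controls.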
Background: Real-time PCR tracks product formation cycle by cycle.
Usually EC50 stands for the concentration needed to bring the measured effect to its halfway point. Consider `O=C(Nc1cc(F)c(F)c(F)c1)c1ccc(Cl)c(S(=O)(=O)C2CC3CCC(C2)C3=O)c1` (centres unmarked) [Example 245], for which the EC50 lay in the range of 100 to 400 nM.

Staying with this test, now noted: Hepatitis B virus, HePAD38, 120 h, HepAD38 cells, five days after compound addition; concentration reducing viral product accumulation by 50% relative to no drug controls; read-out: HepAD38 EC50.
Turning to `O=C(Nc1cc(F)c(F)c(F)c1)c1ccc(Cl)c(S(=O)(=O)CCCCO[C@H]2C3CC[C@H]2C[C@](O)(CO)C3)c1` [Example 165], the EC50 is > 400 nM.
Consider `O=C(Nc1cc(F)c(F)c(F)c1)c1ccc(Cl)c(SC2CCC=CCC2)c1` [Example 63], for which the EC50 is > 400 nM.
On the same count and under the same terms, with `CC(C)(O)C(O)[C@]1(O)C2CCC1C[C@H](S(=O)(=O)c1cc(C(=O)Nc3cc(F)c(F)c(F)c3)ccc1Cl)C2` (some centres unmarked) [Example 363] the figure was < 100 nM.
For the molecule `O=C(Nc1cc(F)c(F)c(F)c1)c1ccc(Cl)c(S(=O)(=O)[C@H]2CC3CCC(C2)[C@@]3(O)Cn2cccn2)c1` [Example 261], the EC50 was > 400 nM.
For the molecule `C[C@]1(O)CC[C@@H](S(=O)(=O)c2cc(C(=O)Nc3cc(F)c(F)c(F)c3)ccc2Cl)CC1` [Example 22], the half-maximal effective concentration (EC50) lay within 100 to 400 nM.
`CCNC(=O)OC[C@]1(O)CC2CC[C@@H](C1)[C@H]2S(=O)(=O)c1cc(C(=O)Nc2cc(F)c(F)c(F)c2)ccc1Cl` [Example 135]: the EC50 lay within 100 to 400 nM.
For `O=C(Nc1cc(F)c(F)c(F)c1)c1ccc(Cl)c(SC2CCOCC2)c1` [Example 67], the EC50 was > 400 nM.
For the molecule `O=C(Nc1cc(F)c(F)c(F)c1)c1ccc(Cl)c(SCc2cccnc2)c1` [Example 35], the EC50 was > 400 nM.
In the case of `O=C1CCCC(S(=O)(=O)c2cc(C(=O)Nc3cc(F)c(F)c(F)c3)ccc2Cl)C1` (centres unmarked) [Example 29], the EC50 is > 400 nM.
On the same count and under the same terms, then `CC(C)[C@H](NC(=O)OC(C)(C)C)C(=O)OC[C@]1(O)CC2CC[C@@H](C1)[C@H]2S(=O)(=O)c1cc(C(=O)Nc2cc(F)c(F)c(F)c2)ccc1Cl` [Example 265], with 100 to 400 nM; and `O=C(Nc1cc(F)c(F)c(F)c1)c1ccc(Cl)c(S(=O)(=O)[C@H]2CC3CCC(C2)[C@]3(O)CNC(=O)[C@@H]2CCCN2)c1` [Example 264], with < 100 nM; and `O=C(Nc1cc(F)c(F)c(F)c1)c1ccc(Cl)c(S(=O)(=O)[C@H]2C3CC[C@H]2C[C@@]2(CO2)C3)c1` [Example 269], with < 100 nM.
Turning to `CC(CO)NC[C@]1(O)C2CCC1C[C@@H](S(=O)(=O)c1cc(C(=O)Nc3cc(F)c(F)c(F)c3)ccc1Cl)C2` (some centres unmarked) [Example 341], the EC50 fell in the range of 100 to 400 nM.
Turning to `CC1(C)O[C@@H]2[C@@H](CSc3cc(C(=O)Nc4cc(F)c(F)c(F)c4)ccc3Cl)OC(=O)[C@]2(C)O1` [Example 90], the EC50 is > 400 nM.
Turning to `Cn1ccnc1[C@]1(O)C2CCC1C[C@@H](S(=O)(=O)c1cc(C(=O)Nc3cc(F)c(F)c(F)c3)ccc1Cl)C2` [Example 362], the EC50 was < 100 nM.
In the case of `O=C(Nc1cc(F)c(F)c(F)c1)c1ccc(Cl)c(S(=O)(=O)[C@H]2C3CC[C@H]2C[C@](O)(COCC(O)CO)C3)c1` (some centres unmarked) [Example 327], the EC50 lay in the range of 100 to 400 nM.
With `O=C(Nc1cc(F)c(F)c(F)c1)c1ccc(Cl)c(S(=O)(=O)[C@H]2C3CC[C@H]2C[C@](O)(/C=N/OCc2cccc(F)c2)C3)c1` [Example 236], the half-maximal effective concentration (EC50) was 100 to 400 nM.
The same measure, in the same setting: with `O=C1CC2CC[C@@H](C1)[C@H]2CS(=O)(=O)c1cc(C(=O)Nc2cc(F)c(F)c(F)c2)ccc1Cl` [Example 180] the figure was < 100 nM; with `O=C(Nc1cc(F)c(F)c(F)c1)c1ccc(Cl)c(S[C@H]2CC3CCC(C2)[C@@H]3O)c1` [Example 190], > 400 nM; with `O=C(Nc1cc(F)c(F)c(F)c1)c1ccc(Cl)c(S(=O)(=O)[C@H]2C3CC[C@H]2C[C@](O)(/C=N/OCc2ccc(C(F)(F)F)cc2)C3)c1` [Example 231], 100 to 400 nM.
Consider `CC(C)([C@H]1C[C@@H](O)C1)S(=O)(=O)c1cc(C(=O)Nc2cc(F)c(F)c(F)c2)ccc1Cl` [Example 118], for which the EC50 lay in the range of 100 to 400 nM.
As to `O=C(Nc1cc(F)c(F)c(F)c1)c1ccc(Cl)c(S(=O)(=O)[C@H]2C3CCC2C[C@@H](O)C3)c1` [Example 44], the EC50 lay within 100 to 400 nM.
As for `O=C(Nc1cc(F)c(F)c(F)c1)c1ccc(Cl)c(S(=O)(=O)C[C@@H]2C3CC[C@H]2C[C@](O)(CO)C3)c1` [Example 178], the EC50 is < 100 nM.
Consider `CC(C)(c1ccncc1)S(=O)(=O)c1cc(C(=O)Nc2cc(F)c(F)c(F)c2)ccc1Cl` [Example 121], for which the EC50 was > 400 nM.
Same read-out and setting: with `O=C1CCCC(S(=O)(=O)c2cc(C(=O)Nc3cc(F)c(F)c(F)c3)ccc2Cl)CO1` (centres unmarked) [Example 30] the figure was > 400 nM; with `CO/N=C/[C@]1(O)CC2CC[C@@H](C1)[C@H]2S(=O)(=O)c1cc(C(=O)Nc2cc(F)c(F)c(F)c2)ccc1Cl` [Example 201], < 100 nM.
Consider `C[C@]1(O)C(=O)O[C@H](CSc2cc(C(=O)Nc3cc(F)c(F)c(F)c3)ccc2Cl)[C@H]1O` [Example 97], for which the EC50 was > 400 nM.
For `O=C(Nc1cc(F)c(F)cn1)c1ccc(Cl)c(S(=O)(=O)[C@H]2CC[C@H](O)CC2)c1` [Example 43], the EC50 is > 400 nM.
For the molecule `CC(=O)OC[C@]1(OC(C)=O)CC2CC[C@@H](C1)[C@H]2S(=O)(=O)c1cc(C(=O)Nc2cc(F)c(F)c(F)c2)ccc1Cl` [Example 185], the EC50 is < 100 nM.
Consider `CCOC(=O)/C=C/[C@]1(O)CC2CC[C@@H](C1)[C@H]2S(=O)(=O)c1cc(C(=O)Nc2cc(F)c(F)c(F)c2)ccc1Cl` [Example 222], for which the EC50 was > 400 nM.
For the molecule `O=C(Nc1cc(F)c(F)c(F)c1)c1ccc(Cl)c(S(=O)(=O)[C@H]2CC[C@@](O)(CO)CC2)c1` [Example 110], the EC50 lay in the range of 100 to 400 nM.
In the case of `O=C(Nc1cc(F)c(F)c(F)c1)c1ccc(Cl)c(S(=O)(=O)[C@H]2C3CC[C@H]2C[C@](O)(C#Cc2ccccn2)C3)c1` [Example 171], the EC50 was < 100 nM.
The same measure, in the same setting: with `O=C(Nc1cc(F)c(F)c(F)c1)c1ccc(Cl)c(S(=O)(=O)C2CCN(c3ccccn3)CC2)c1` [Example 95] the figure was > 400 nM; with `CCOC(=O)C(F)(F)Sc1cc(C(=O)Nc2cc(F)c(F)c(F)c2)ccc1Cl` [Example 91], > 400 nM.
Still for that read-out and setting: with `NCC(=O)NC[C@]1(O)C2CCC1C[C@@H](S(=O)(=O)c1cc(C(=O)Nc3cc(F)c(F)c(F)c3)ccc1Cl)C2` [Example 350] the figure was 100 to 400 nM; with `O=C(Nc1cc(F)c(F)c(F)c1)c1ccc(Cl)c(S(=O)(=O)[C@H]2C3CC[C@H]2C[C@]2(CO2)C3)c1` [Example 139], < 100 nM; with `CC(C)[C@H](NC[C@]1(O)C2CCC1C[C@@H](S(=O)(=O)c1cc(C(=O)Nc3cc(F)c(F)c(F)c3)ccc1Cl)C2)C(=O)O` [Example 344], > 400 nM.
On to `O=C(Nc1cccc(F)c1)c1ccc(Cl)c(S(=O)(=O)[C@H]2CC[C@H](O)CC2)c1` [Example 65], for which the EC50 is > 400 nM.
For the molecule `CCO/N=C/[C@]1(O)CC2CC[C@@H](C1)[C@H]2S(=O)(=O)c1cc(C(=O)Nc2cc(F)c(F)c(F)c2)ccc1Cl` [Example 202], the EC50 is < 100 nM.
Same read-out and setting: with `O=C(Nc1cc(F)c(F)c(F)c1)c1ccc(Cl)c(S(=O)(=O)[C@H]2CC[C@H](O)CC2)n1` [Example 62] the figure was > 400 nM; with `O=C(Nc1cc(F)c(F)c(F)c1)c1ccc(Cl)c(S(=O)(=O)[C@H]2C[C@H]3CC[C@@H](C2)O3)c1` [Example 357], 100 to 400 nM; with `O=C(Nc1cc(F)c(F)c(F)c1)c1ccc(Cl)c(S(=O)(=O)C[C@@H]2CC3CC2[C@H](O)[C@@H]3O)c1` (some centres unmarked) [Example 242], 100 to 400 nM.
On to `CCOC(=O)C(CC1CCOCC1)S(=O)(=O)c1cc(C(=O)Nc2cc(F)c(F)c(F)c2)ccc1Cl` (centres unmarked) [Example 116], for which the EC50 is > 400 nM.
